In patent US12129278B2, “High-affinity peptide for tumor necrosis factor alpha and application thereof” (priority 2017, dated 2024):
Where no end group is shown, it is not given here.

Tests used:
[1] = system: p-xylene induced ear swelling in Kunming mice; assay: p-xylene induced mouse ear swelling model of inflammation; assay type: in vivo; settings: male Kunming mice, subcutaneous injection for 3 consecutive days, p-xylene on right auricle, 1 h, versus control group
Method: The experimental animals were divided into three groups: blank group, a non-related peptide control group and an antagonist peptide (peptide 632) group. Using mice as an example, male Kunming mice of 6 weeks old were injected subcutaneously at right abdomen for 3 consecutive days. After the last injection, mice of each group were smeared with p-xylene on both sides of the right auricle. 1 h after the treatment, mice were sacrificed, and the left and right ears of the mice were cut. An ear swelling puncher was used to cut down ears to obtain ear pieces. Swelling degree of mouse ear were obtained by subtracting the weighs of left ear piece from the weighs of right ear piece.
The experimental animals were divided into three groups: blank group, a non-related peptide control group and an antagonist peptide (peptide 632) group. Male Kunming mice of 6 weeks old were injected subcutaneously with peptides at right abdomen for 3 consecutive days. 30 min after the last injection, mice of each group were smeared with p-xylene (0.03 ml/per mouse) on both sides of the right auricle to induce inflammation, and the left auricle was served as normal control. 1 h after the inflammation, animals were sacrificed, and the ears of mice were completely cut and marked to distinguish the left and right ears of the same mouse. […] The ear pieces were weighed together with papers, and the results were recorded. […]

TNF-α protein = TNF-α protein (Homo sapiens, UniProt P01375); assay: ELISA affinity assay of FITC-labeled peptide to coated TNF-α; assay type: binding; settings: FIG. 1 / FIG. 2
Method: (§1) A 96-well ELISA plate was coated with 2 μg/ml TNF-α solution at 4° C. overnight. Different concentrations of peptide 632 labeled with FITC were added to each well and incubated for 2 h. After incubation, HRP-conjugated anti-FITC monoclonal antibody was added, incubated for 1 h, and then ABTS coloring solution was added. After color development for 1 h, the OD value at 410 nm was measured using a microplate reader, and GraphPad Prism 5 was used for plotting and analysis.
as §1, with “TNF-α protein” for “TNF-α solution”, “overnight. After blocking with BSA, different” for “overnight. Different”

TNF-α protein, sequence (P01375 77-233 limits assumed, species assumed): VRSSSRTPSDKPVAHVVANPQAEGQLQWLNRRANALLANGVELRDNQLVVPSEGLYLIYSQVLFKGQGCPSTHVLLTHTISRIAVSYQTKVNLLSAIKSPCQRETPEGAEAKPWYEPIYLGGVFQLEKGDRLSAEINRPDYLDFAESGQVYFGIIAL

binding affinity for TNF-α protein (in words) (TNF-α protein)	Substance	swelling degree of mouse ear [1]	swelling degree of mouse ear ([1]; listed as antagonist peptide)
high binding affinity	HYIDFRW [peptide 632, HYIDFRW]	significantly lower than those of the control group	significantly inhibit the swelling of the mouse ear
high binding affinity	KASGSPSGFWPS [peptide 636]	–	–
